# Data taken from a melting point compilation (Tetko et al.; mined from patent text by program, amines drawn as free bases though some values may be those of a salt).
row,SMILES,melting point [°C]
1,O=C(c1cccs1)C1(c2ccc(Cl)cc2)CCC1,74 to 76
2,Cc1ccc2c(c1)c(O)c(C(=O)NC1CCCCC1)c(=O)n2C,218
3,Cc1cc(NC(=O)NCc2ccc3c(c2)CN(C2CCC(=O)NC2=O)C3=O)ccc1O (configuration not stated),210 to 212
4,O=C(NN=C(Cc1ccccc1)c1ccccn1)OCc1ccccc1,155
5,Cc1cc(=O)n(C)c2c1C(=O)CC(c1ccsc1)C2 (configuration not stated),156 to 157
6,O=C(NCc1ccc(Cl)cc1Cl)N1CCc2[nH]cnc2C1CCC1CCCCC1 (configuration not stated),185 to 187
7,COc1ccc2c(c1OCc1ccccc1)CC(C(=O)O)N(C(=O)Cc1c(Cl)cccc1Cl)C2 (racemic),205 to 207
8,COc1cccc2oc(C(=O)c3cccc(C(F)(F)F)c3)c(C)c12,91 to 92
9,CN1C(=O)C(c2ccc(OCCF)cc2)(c2ccc(F)c(-c3cccnc3F)c2)N=C1N (configuration not stated),135
10,CCn1c(OC)n[nH]c1=O,130
11,Cn1ncc(C(N)=O)c1-c1ccc([N+](=O)[O-])o1,174 to 176
12,COc1cc(NC(=O)/C=C/c2ccc(C(C)(C)C)cc2)ccc1O,203 to 204
13,CSCCC(=N)Nc1cn(-c2cccnc2)nc1Cl,137
14,COc1ccc(C2OCCN2CCNc2ccc(NCCN3CCOC3c3ccc(OC)cc3OC)c3c2C(=O)c2c(O)ccc(O)c2C3=O)c(OC)c1 (configuration not stated),181 to 185
15,CCc1cn(S(=O)(=O)c2ccc(C)cc2)c2cc(C(=O)Nc3c(Cl)cncc3Cl)ccc12,147 to 149
16,CNC(=NOC)C1=Nc2ccc(Cl)cc2C(c2ccccc2F)=NC1,140 to 142
17,O=C(C1=COc2cc(O)ccc2O1)N1CCN(C(c2ccc(F)cc2)c2ccc(F)cc2)CC1,163
18,Cc1cc(-c2cc(C(F)(F)F)nn2-c2ccc(S(C)(=O)=O)c(F)c2)ccc1-c1ccco1,123 to 125
19,NN1CCC[C@H]1C(=O)O,153 to 154
20,"CC(Cl)COC(C)c1ccc(O)cc1 (single isomer, unassigned; (+))",50 to 51
21,NS(=O)(=O)c1cccc(NC(=O)c2cnn3c(C(F)F)cc(-c4ccc(Cl)cc4)nc23)c1,278
22,CN1CCN(Cc2c(CO)c(Cl)nc3cc4c(cc23)OCCO4)CC1,178 to 180
23,Cc1ccc2c(c1)C(c1ccccc1Cl)C(=O)N2 (configuration not stated),208
24,CC12CC=C3c4ccc(O)cc4CCC3C1CCC2=O (configuration not stated),250 to 255
25,Cc1ccc(-c2cn(C)cc(-c3ccc(C)cc3)c2=O)cc1,212 to 214
26,COc1ccc2cc(C(=O)C(C)OS(C)(=O)=O)ccc2c1 (configuration not stated),149 to 151

row,SMILES,melting point [°C]
1,COC(=O)/C=C(\C)c1ccc2c(c1)C(C)(C)OC(=O)N2,131 to 132
2,O=C(NC1CCCCC1)c1c(O)c2ccccc2[nH]c1=O,221
3,C=CCN1CCc2c(sc(N)c2C(=O)c2ccc(Cl)cc2)C1,118 to 120
4,CCOC(CNC(=S)Nc1ccnn1C)OCC,148 to 149
5,COc1cccc(N2C(CO)=Cc3cc(S(N)(=O)=O)sc3S2(=O)=O)c1,180 to 182
6,CN1CCN(c2ccccc2CC2CCN(c3ccc(F)c(F)c3)C2=O)CC1 (configuration not stated),130 to 131
7,O=C(O)c1cccc(C(=O)Nc2ccc(-n3nc(C(F)(F)F)cc3C(F)(F)F)cc2)c1,244 to 245
8,CC(=O)c1ccc(-c2ccc(F)cc2F)c(N)c1,93 to 95
9,Cc1c(-c2cccc(F)c2)sc2nc(N)[nH]c(=O)c12,310 to 330
10,NC(=O)[C@H]1CCc2c(sc3nc(CN4C(=O)COC4=O)c(Cl)c(-c4ccc(O)cc4)c23)C1,317 to 318
11,O=C(O)C1SC(C23CC4CC(CC(C4)C2)C3)=NN1C(=O)CCS (configuration not stated),183 to 184
12,CCCCCCCCCc1c(Cl)nc(-c2ccc(OC)c(F)c2)nc1Cl,59 to 60
13,CC(C)=CCOc1ccc2c(=O)c(C)c(-c3ccccc3)oc2c1C(=O)C=Cc1ccc(Cl)cc1,130 to 133
14,COC(=O)Cc1c(C)n(-c2ncnc3cc(Cl)ccc23)c2ccc(OC)cc12,112 to 114
15,O=C1CC(=O)OC(CCc2ccccc2)(C2CCCC2)C1 (configuration not stated),96 to 99
16,CN1C(=O)C(=NO)C(=NCCCCCC(=O)O)N(C)C1=O,246 to 248
17,COc1cc(Br)cc2nc(SCc3ccccc3)nn12,80 to 82
18,NC1(C2CCN(c3c(F)cc4c(=O)[nH]c(=O)n(C5CC5)c4c3OC(F)F)C2)CC1 (configuration not stated),210 to 214
19,COc1cc(C(OC(C)=O)C(=O)O)cc(OC)c1OC (configuration not stated),135 to 139
20,COc1cc(-c2nc(NNC(=O)c3cc4c(C)c(C)ccc4n3CCCC#N)nn2CCC2CCCCC2)c(OC)cc1Cl,178
21,Cn1ccc2cc(N3Cc4ccc(OCC(F)(F)F)cc4C3=O)ccc21,182 to 188
22,CC(=O)N1CCC(=O)NCc2ccccc21,236 to 239
23,CNC(=S)NCC1CC(c2ccc(Cl)cc2)=NO1 (configuration not stated),131 to 133
24,CCOC(=O)c1c(-c2ccncc2)[nH]c(-c2ccncc2)c1C,206 to 208
25,CCOP(=O)(OCC)c1cnn(-c2ccc(Cl)c(Cl)c2Cl)c1N,114
26,FC(F)(F)c1n[nH]c2ccccc12,104

row,SMILES,melting point [°C]
1,CCOC(Cc1ccc(OCCN2CCSc3ccccc32)cc1)C(=O)NCc1ccccc1 (configuration not stated),92 to 93
2,CCOC(=O)C1=C(C)NC(N=CN(C)C)=C(C(=O)OCC)C1c1ccccc1[N+](=O)[O-] (configuration not stated),126
3,CCn1cc(C(=O)NN)c(=O)c2ccc(-c3ccccc3)cc21,243 to 244
4,O=C1CCCCCCCCCCC=CCCCCCCCCCCC1O (configuration not stated),78
5,CCCc1c(O)c(C(C)=O)cc(I)c1OCc1ccc(C(=O)O)cc1,167 to 168
6,CCCCCCCCCCCCCCOc1ccc(C(=O)OC)cc1Cl,42 to 43
7,O=c1[nH]c(-c2cccc(Oc3ccc4c(c3)S(=O)(=O)N=C3CCCN34)c2)no1,> 250
8,COc1ccc(C(=O)c2cccc(OC)c2)cc1,53 to 55
9,O=C(O)CN(C(=O)Cc1ccc(Cl)c(Cl)c1)[C@H](CN1CC[C@H](O)C1)c1ccccc1,162 to 164
10,CC(C)Oc1cccc(-n2c(NC(=O)Nc3ccc(Br)cc3)nc3ccccc3c2=O)c1,230 to 233
11,Cc1[nH]cc2c(=O)n(-c3ccc(Cl)cc3)nc-2c1-c1cccc(I)c1,306 to 312
12,CC(C)c1ccc2c(c1)c(Sc1ccccc1)c(CC(C)(C)C(=O)O)n2Cc1ccc(Cl)cc1,162 to 165
13,COc1ccc(Nc2nc(-c3ccncc3)nc3ccccc23)cc1Cl,> 220
14,COC(=O)NCCOc1cc(-c2ccccc2)on1,95 to 96
15,COc1cc([N+](=O)[O-])c2nccc(C)c2c1OCCCCCc1ccco1,47 to 49
16,CCCc1c(OCCCCCCCC(=O)OC)ccc(C(C)=O)c1O,39 to 41
17,CC(C)(n1cncn1)C(O)(Cn1cncn1)c1ccc(F)cc1F (configuration not stated),155 to 157
18,COc1ccc2cc(N3CCC4(CCN(C)CC4)CC3)ccc2c1,122 to 125
19,CCOC(=O)c1cccnc1NC(=O)Cc1cccc(Oc2ccccc2)c1,90 to 91
20,N#Cc1ccc(CC2CCN(Cc3ccccc3)CC2)cc1,95 to 96
21,CCCCc1nc2ccccn2c(=O)c1-c1ccc(Cl)cc1C,105 to 107
22,Cn1ccc2c(NC(=O)c3ccccc3O)cccc21,211
23,CCOc1ccc([N+](=O)[O-])c(NC2CCCCCC2)c1,83
24,O=Cc1cc2c(s1)CCCc1cc(=O)n(-c3ccc(Cl)cc3)nc1-2,170 to 172
25,O=C(O)C1CCCc2c1ccc1c2OCO1 (configuration not stated),225 to 257
26,OC1(c2ccncc2)c2ccccc2CCc2ccccc21,174 to 177

row,SMILES,melting point [°C]
1,CC1CCCC(C)N1Cc1nc(-c2ncn3c2C2CCN2C(=O)c2c(Cl)cccc2-3)no1 (configuration not stated),233 to 236
2,COc1ccc(CC2CCc3ncc(C)cc3C2=O)cc1 (configuration not stated),92 to 93
3,CCOC(=O)c1cc(C)sc1NN=c1c(C(=O)OCC)c[nH]c2ccccc12,173 to 174
4,CCCCCCCCCCCC(CC1OC(=O)C1CCCCCC)OC(=O)C(N)CC(C)C (configuration not stated),27 to 30
5,Cc1c(C)c2c3c(cc(C)c2[nH]c1=O)CC(CN=[N+]=[N-])O3 (configuration not stated),187 to 189
6,CN(CCOc1ccc(CC2SC(=O)NC2=O)cc1)c1nc2ccccc2s1 (configuration not stated),167 to 168
7,COc1ccc(-c2csc(Nc3ccc4ccccc4n3)n2)cc1OC,257 to 259
8,CCOC(=O)N(c1cccc(C(F)(F)F)c1)c1ccccc1N=NC(NC(=O)CCl)(C(=O)OCC)C(=O)OCC,76 to 79
9,CC(=O)S[C@H]1CNC(=O)C1,114 to 116
10,Clc1ccc(Cl)n2nc(SCc3ccccc3)nc12,103 to 104
11,CCOc1ccnc(Cl)n1,30 to 31
12,O=C(NC1Cc2cccc(-c3ccc(F)cc3)c2C1)c1ccc(F)cc1 (configuration not stated),157
13,CCCc1nc2c(N)nc3ccccc3c2n1CCCCN(OC)C(=O)Nc1ccccc1,164 to 166
14,O=[N+]([O-])c1c(Br)nn(Cc2ccccc2)c1NCCO,110 to 112
15,COc1cc2c(cc1C(F)(F)F)N(C(=O)Nc1cc(-c3ccccc3)cc(-c3cccnc3)c1)CC2,150 to 151
16,CCOC(=O)C(Cc1ccc(OCCBr)cc1)OCC (configuration not stated),110 to 114
17,COc1ccc(NS(=O)(=O)CC(=O)O)cc1[N+](=O)[O-],154 to 156
18,Clc1cc(Cl)c2[nH]c(-c3ccccc3)cc2c1,136 to 138
19,CCOC(=O)C(C)(C)Oc1ccc(CNc2ccc(Cl)cc2)cc1,58 to 60
20,Cc1sc(C=O)cc1C(=O)O,173
21,O=C1NN=C(c2ccc3c(c2)CCN(C2CCC2)CC3)C2CCCC12 (configuration not stated),198 to 201
22,COc1ccc(C2(CCN3CCC(C(=O)c4nc5ccccc5n4Cc4ccc(F)cc4)CC3)CCN(C(=O)c3ccccc3)C2)cc1OC (configuration not stated),42 to 44
23,O=C(c1cccnc1)C1COCOC1,91 to 100
24,CCC1(NC(=O)CCl)COCOC1,89 to 95
